{
  "source": "paper PMC11087509",
  "about": "“Multimodal binding and inhibition of bacterial ribosomes by the antimicrobial peptides Api137 and Api88” (Nature Communications, 2024)",
  "key": {"purified 70S ribosomes": {"test_system": "purified 70S ribosomes", "assay": "In vitro transcription-translation (ITT) of sfGFP", "format": "biochemical, E. coli", "text": "sfGFP was expressed using the NEB PureExpress Delta RF123 Kit (New England Biolabs). The sfGFP DNA template encoding for an UAG stop codon was amplified from the pY71sfGFP plasmid by PCR using sfGFP primers (sfGFP fwd: […] and sfGFP rev: […]). The release factor RF1 included in the kit was 50-fold diluted (v/v) in freshly prepared 1x Pure System Buffer (PSB, 9 mmol/L magnesium acetate, 5 mmol/L K3PO4 (pH 7.3), 95 mmol/L potassium glutamate, 5 mmol/L NH4Cl, 0.5 mmol/L CaCl2, 1 mmol/L spermidine, 8 mmol/L putrescine, 1 mmol/L DTT). sfGFP was expressed in a freshly prepared mixture of kit solution A (2 µL), kit solution B (1.5 µL), 50-fold diluted RF1 (0.5 µL), sfGFP template (0.1325 pmol, 35 ng) or water as control (0.25 µL), PSB (0.25 µL), and a PrAMP (50, 5, 0.05 or 0 µmol/L) dissolved in water (0.5 µL). The reaction mixture was transferred to a black 384-well plate (Greiner Bio-One GmbH, Frickenhausen, Germany), covered with a lid, and incubated in a microplate reader (Gemini EM, Molecular Devices) at 37 °C for two hours. Fluorescence was recorded every 10 min (λexc = 485 nm, λem = 535 nm)."}, "[1]": {"test_system": "ribosome (arrest at UAG stop codon of model yrbA ORF)", "assay": "In vitro toeprinting analysis (yrbA-fs15 template, TAG stop codon)", "format": "biochemical", "settings": "50 µmol/L; gel, one of two replicates", "description": "Toeprinting experiments using the yrbA-fs15 DNA template with a TAG stop codon were performed in the NEB classic PURExpress system (New England Biolabs)[21] as described above. The template was prepared by PCR[21] by combining the overlapping primers T7, T7-IR-AUG, IR-yrbA-fs15-RF1 (for TAG), post-NV1, and NV1, rendering the sequence:\n[…](TAG)[…] (ORF sequence is underlined). The peptides Api137 and Api88 were added from stock solutions in water to a final concentration of 50 µM."}, "50S subunit": {"target": "T1, 50S subunit (Escherichia coli, UniProt P0A7M6+P0ADZ0+P60723+P61175)", "T1 construct": "Ribosomes were isolated from the E. coli strain MRE600; made in house; native subunits isolated in house", "assay": "Fluorescence polarization binding, 50S subunit", "parameters": "species or system E. coli", "description": "Several hundred grams of log-phase cells were commercially produced and purchased. Cells were washed in buffer A (20 mmol/L HEPES (pH 7.6), 6 mmol/L MgAc2, 30 mmol/L AcOK, 4 mmol/L ß-mercaptoethanol) and lysed in an M-110L microfluidizer (Microfluidics) at 17,000 psi and 4 °C. Cell debris was removed by low-speed centrifugation (15,000× g, 10 min, 4 °C) to obtain S30 lysate. Crude ribosomes, mostly containing 70S ribosomes, were pelleted by ultracentrifugation (40,000× g, 17 h, 4 °C) and resuspended in buffer A. The 70S ribosomes were separated from 30S and 50S subunits by zonal ultracentrifugation (Beckman Ti-15; 6–40% sucrose gradient in buffer A, 44,000× g, 16 h, 4 °C). The 70S-containing fractions were collected, and the ribosomes were sedimented by ultracentrifugation (40,000× g, 17 h, 4 °C). Since these 70S ribosomes still contained tRNAs and mRNA, they were resuspended in buffer B (20 mmol/L HEPES (pH 7.6), 1 mmol/L MgAc2, 0.2 mol/L NH4Ac, 4 mmol/L ß-mercaptoethanol), which allows for dissociation into 30S and 50S subunits, and subjected to a second zonal centrifugation (Beckman Ti-15, 44,000× g, 16 h, 4 °C), but this time in a 6–40% sucrose gradient prepared in buffer B. Fractions containing 30S and 50S subunits were collected, sedimented by ultracentrifugation (40,000× g, 17 h, 4 °C), resuspended in buffer A, aliquoted, shock-frozen in liquid nitrogen, and stored at −80 °C.\nDissociation constants (Kd) were determined using purified 70S ribosome, 50S or 30S subunit and cf-labeled peptides in ribosome preparation buffer. Briefly, black 384-well plates (flat bottom, 781209, Greiner Bio-One GmbH) were blocked with casein (0.5%, w/v) in PBS containing 0.05% (v/v) Tween 20 at 4 °C overnight and washed three times with phosphate buffer. A 2-fold dilution series (22 steps) of pure 70S ribosome, 50S or 30S subunit (10 μL per well) in ribosome preparation buffer was prepared in a black 384-well plate. The cf-labeled peptide was dissolved in ribosome preparation buffer (10 μL, 40 nmol/L), added to each well, centrifuged (500 x g, 2 min), and incubated at 28 ± 1 °C for 90 min. Fluorescence polarization was measured on a […]^TM microplate reader (Beckman Coulter, Krefeld, Germany) in the top reading position (λexc = 485 nm, λem = 535 nm). Data were fitted to a nonlinear dose-response logistic transition equation [y = y0 + a/(1 + (x/x0)b)] using the Levenberg-Marquardt algorithm, with Kd represented by the x0 coefficients (GraphPad Prism for Windows v. 10.1.2, San Diego, CA, USA)."}, "30S subunit": {"test_system": "30S subunit", "assay": "Fluorescence polarization binding, 30S subunit", "parameters": "species or system E. coli", "settings": "ratio 30S / 50S; cf-labeled", "description": "Several hundred grams of log-phase cells were commercially produced and purchased. Cells were washed in buffer A (20 mmol/L HEPES (pH 7.6), 6 mmol/L MgAc2, 30 mmol/L AcOK, 4 mmol/L ß-mercaptoethanol) and lysed in an M-110L microfluidizer (Microfluidics) at 17,000 psi and 4 °C. Cell debris was removed by low-speed centrifugation (15,000× g, 10 min, 4 °C) to obtain S30 lysate. Crude ribosomes, mostly containing 70S ribosomes, were pelleted by ultracentrifugation (40,000× g, 17 h, 4 °C) and resuspended in buffer A. The 70S ribosomes were separated from 30S and 50S subunits by zonal ultracentrifugation (Beckman Ti-15; 6–40% sucrose gradient in buffer A, 44,000× g, 16 h, 4 °C). The 70S-containing fractions were collected, and the ribosomes were sedimented by ultracentrifugation (40,000× g, 17 h, 4 °C). […]\nDissociation constants (Kd) were determined using purified 70S ribosome, 50S or 30S subunit and cf-labeled peptides in ribosome preparation buffer. […] Fluorescence polarization was measured on a […]^TM microplate reader (Beckman Coulter, Krefeld, Germany) in the top reading position (λexc = 485 nm, λem = 535 nm). […]"}, "Gram-negative bacteria": {"test_system": "Gram-negative bacteria", "settings": "cited from earlier work", "text": "Here we have focused on two structurally modified versions of apidaecin 1b ([…]), which was originally isolated from the western honeybee (Apis mellifera)."}, "murine infection models": {"test_system": "murine infection models", "settings": "various models, different routes of administration; cited from earlier work", "text": "Here we have focused on two structurally modified versions of apidaecin 1b ([…]), which was originally isolated from the western honeybee (Apis mellifera). […] Api137 and Api88 differ only in their C-termini, i.e., a free acid versus an amide, which are negatively charged or neutral, respectively, ..."}, "DnaK": {"target": "DnaK", "settings": "read-out: Kd (DnaK); peer review response; cited from earlier work", "text": "We now introduce trigger factor in line 446 as “…molecular chaperone…” In addition, we hypothesize that Api88 binds to the ribosome within the contact area of TF, which interacts with uL23 and uL29, two proteins we report here as cross-linked to Api88."}, "uL22 and uL4": {"test_system": "uL22 and uL4", "settings": "cited from earlier work"}},
  "note": "Where a SMILES comes first, the peptide text is derived from it. The star is where a group is joined. Orn(α-tetramethylguanidino) = CN(C)C(=N[C@@H](CCCN)C(=O)*)N(C)C",
  "data": [
    {"smiles": "CC[C@H](C)[C@H](NC(=O)[C@H](Cc1ccc(O)cc1)NC(=O)[C@@H](NC(=O)[C@@H]1CCCN1C(=O)[C@H](CCCNC(=N)N)NC(=O)[C@H](CC(N)=O)NC(=O)[C@H](CC(N)=O)NC(=O)[C@H](CCCN)N=C(N(C)C)N(C)C)C(C)C)C(=O)N1CCC[C@H]1C(=O)N[C@@H](CCCNC(=N)N)C(=O)N1CCC[C@H]1C(=O)N[C@@H](CCCNC(=N)N)C(=O)N1CCC[C@H]1C(=O)N1CCC[C@H]1C(=O)N[C@@H](Cc1c[nH]cn1)C(=O)N1CCC[C@H]1C(=O)N[C@@H](CCCNC(=N)N)C(=O)N[C@@H](CC(C)C)C(=O)O", "note": "[Api137] ({Orn(α-tetramethylguanidino)}-NNRPVYIPRPRPPHPRL-OH)", "values": [
      {"measurement": "production of sfGFP reduced down to", "setting": "purified 70S ribosomes; absence of RF1, 50 µmol/L", "result": "~ 60%"},
      {"measurement": "share of inhibitory effect based on a RF1-independent mechanism", "setting": "purified 70S ribosomes; in vitro protein translation, with vs without RF1", "result": "half of the inhibitory effect"},
      {"measurement": "toeprinting band at the UAG stop codon", "setting": "[1]", "result": "intense toeprinting band"},
      {"measurement": "Kd", "setting": "50S subunit; apparent Kd, cf-labeled PrAMP (10 μL, 40 nmol/L), ribosome preparation buffer pH 7.6, 28 °C, 90 min, mean of triplicates", "result": "2180 ± 110", "unit": "nM"},
      {"measurement": "Kd for 50S subunit lower than for 70S ribosome", "setting": "50S subunit; ratio 70S / 50S, cf-labeled", "result": "two-"},
      {"measurement": "binding to 30S subunit weaker compared to 50S subunit", "setting": "30S subunit", "result": "~10", "unit": "fold"},
      {"measurement": "antimicrobial activity (Api137 and Api88 compared)", "setting": "Gram-negative bacteria; Api137 and Api88", "result": "comparable level of antimicrobial activity"},
      {"measurement": "antibacterial activity", "setting": "Gram-negative bacteria; against Gram-negative bacteria", "result": "enhanced antibacterial activity"},
      {"measurement": "efficacy in murine infection models", "setting": "murine infection models", "result": "demonstrated efficacy in various murine infection models"},
      {"measurement": "Kd", "setting": "DnaK", "result": "~5", "unit": "µM"},
      {"measurement": "ribosomal proteins interacting (genetic screen)", "setting": "uL22 and uL4", "result": "uL22 and uL4"}
    ]}
  ]
}
